One experiment deals with NAMPT (Homo sapiens (Human), UniProt P43490). Put plainly: Biochemical Inhibition Assay (NAMPT enzymatic reaction, NMN quantified by mass spectrometry). As to conditions: recombinant His-tagged NAMPT, 33 nM; 1 μM NAM; read-out: Biochem IC50. The protocol:
Recombinant His-tagged NAMPT was produced in E. coli cells, purified over a Ni column, and further purified over a size-exclusion column by XTAL Biostructures.
The NAMPT enzymatic reactions were carried out in Buffer A (50 mM Hepes pH 7.5, 50 mM NaCl, 5 mM MgCl2, and 1 mM THP) in 96-well V-bottom plates. The compound titrations were performed in a separate dilution plate by serially diluting the compounds in DMSO to make a 100× stock. […] The compound and enzyme mix was incubated for 15 minutes at room temperature, then 10 μL of 10× substrate and co-factors in Buffer A were added to the test well to make a final concentration of 1 μM NAM, 100 μM 5-Phospho-D-ribose 1-diphosphate (PRPP), and 2.5 mM Adenosine 5′-triphosphate (ATP). The reaction was allowed to proceed for 30 minutes at room temperature, then was quenched with the addition of 11 μL of a solution of formic acid and L-Cystathionine to make a final concentration of 1% formic acid and 10 μM L-Cystathionine. Background and signal strength was determined by addition (or non-addition) of a serial dilution of NMN to a pre-quenched enzyme and cofactor mix.
A mass spectrometry-based assay was used to measure the NAMPT reaction product (NMN) and the internal control (L-Cystathionine). NMN and L-Cystathionine were detected using the services of Biocius Lifesciences with the RapidFire system. In short, the NMN and L-Cystathionine are bound to a graphitic carbon cartridge in 0.1% formic acid, eluted in 30% acetonitrile buffer, and injected into a Sciex 4000 mass spectrometer. The components of the sample were ionized with electrospray ionization and the positive ions were detected. […] The fragments are quantified and the analyzed by the following method.
First the NMN signal is normalized to the L-Cystathionine signal by dividing the NMN signal by the L-Cystathionine signal for each well. The signal from the background wells are averaged and subtracted from the test plates.
Wherein x denotes the average signal of the compound treated wells and y denotes the average signal of the DMSO treated wells.
IC50s are Determined Using Excel and this Formula.
Wherein X denotes the compound concentration 1, Y denotes the compound concentration 2, XX denotes the % inhibition at compound concentration 1 (X), and YY denotes the % inhibition at compound concentration 2 (Y).

For a further experiment, the system named is A2780 cells. Put plainly: In-Vitro Cell Proliferation Assay (SRB, 72 hours). The experiment is classed as cell-based. As to conditions: A2780 cells, 72 hours, sulforhodamine B, read-out: A2780 IC50. The protocol:
After overnight incubation at 37° C. and 5% CO2, the compound titrations were performed in a separate dilution plate by serially diluting the compounds in DMSO to make a 1000× stock. The compounds were then further diluted to 10× final concentration in culture media, whereupon 20 μL of each dilution was added to the plated cells with controls (e.g. DMSO and blank) to make a final volume of 200 μL. The final DMSO concentration in each well was 0.1%. The plates were then incubated for 72 hours at 37° C. in a 5% CO2 incubator. The number of viable cells was then assessed using sulforhodamine B (SRB) assay. Cells were fixed at 4° C. for 1 hour with the addition of 50 μL 30% trichloroacetic acid (TCA) to make a final concentration of 6% TCA. The plates were washed four times with H2O and allowed to dry for at least 1 hour, whereupon 100 μL of a 4% SRB in 1% acetic acid solution was added to each well and incubated at room temperature for at least 30 minutes. The plates were then washed three times with 1% acetic acid, dried, and treated with 100 μL of 10 mM Tris-Base solution. The plates were then read in a microplate reader at an absorbance of 570 nm. Background was generated on a separate plate with media only.
First, the signals from the background plate are averaged and then the background was subtracted from the test plates.
wherein x denotes the average signal of the compound-treated cells and y denotes the average signal of the DMSO-treated cells.
wherein X denotes the compound concentration 1, Y denotes the compound concentration 2, XX denotes the % inhibition at compound concentration 1 (X), and YY denotes the % inhibition at compound concentration 2 (Y).

Molecules are shown by their SMILES. Like-named read-outs stand apart in the source and are kept apart here.

NAMPT, sequence (P43490 whole entry): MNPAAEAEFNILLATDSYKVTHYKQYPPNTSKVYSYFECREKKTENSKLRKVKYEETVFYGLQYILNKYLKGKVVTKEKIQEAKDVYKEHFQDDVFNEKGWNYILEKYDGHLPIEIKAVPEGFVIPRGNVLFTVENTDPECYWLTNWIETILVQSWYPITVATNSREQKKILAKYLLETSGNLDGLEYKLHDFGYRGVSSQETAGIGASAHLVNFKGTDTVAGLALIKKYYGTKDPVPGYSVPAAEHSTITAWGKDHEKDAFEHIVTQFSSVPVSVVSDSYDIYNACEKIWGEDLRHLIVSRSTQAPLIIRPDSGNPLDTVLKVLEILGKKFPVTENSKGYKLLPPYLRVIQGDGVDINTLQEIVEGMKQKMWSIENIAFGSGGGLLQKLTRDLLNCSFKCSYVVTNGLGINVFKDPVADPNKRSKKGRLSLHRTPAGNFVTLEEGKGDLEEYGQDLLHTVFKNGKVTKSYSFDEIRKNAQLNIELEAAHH

By IC50 is commonly meant the concentration at which inhibition is half-maximal. Take `O=C(/C=C/c1cccnc1)Nc1ccc(S(=O)(=O)c2cc(Cl)cc(Cl)c2)cc1` [(2E)-N-{4-[(3,5-dichlorobenzene)sulfonyl]phenyl}-3-(pyridin-] [(2E)-N-{4-[(3,5-dichlorobenzene)sulfonyl]phenyl}-3-(pyridin-3-yl)prop-2-enamide]: the IC50 was 50.5 nM on NAMPT and 186 nM in the experiment with A2780 cells.
As to `Cc1ncccc1S(=O)(=O)c1ccc(NC(=O)/C=C/c2cccnc2)cc1` [(2E)-N-[4-(2-methylpyridine-3-sulfonyl)phenyl]-3-(pyridin-3-yl)prop-2-enamide], the IC50 at NAMPT was 9 nM; with A2780 cells (Homo sapiens, A2780, 72 h) it was 100 to 1000 nM.
Turning to `CN(C)c1ccc(S(=O)(=O)c2ccc(NC(=O)/C=C/c3cccnc3)cc2)cn1` [(2E)-N-{4-[6-(dimethylamino)pyridine-3-sulfonyl]phenyl}-3-(pyridin-3-yl)prop-2-enamide], the IC50 turned out to be 5.1 nM at NAMPT and 78.1 nM in the experiment with A2780 cells (Homo sapiens, A2780, 72 h).
`O=C(/C=C/c1cccnc1)Nc1ccc(S(=O)(=O)c2ccc(Cl)c(C(F)(F)F)c2)cc1` [(2E)-N-(4-{[4-chloro-3-(trifluoromethyl)benzene]sulfonyl}phenyl)-3-(pyridin-3-yl)prop-2-enamide]: the 50% inhibitory concentration (IC50) worked out at 18.4 nM on NAMPT and 122 nM with A2780 cells (Homo sapiens, A2780, 72 h).
Regarding `CC(C)Oc1cccc(S(=O)(=O)c2ccc(NC(=O)/C=C/c3cccnc3)cc2)c1` [(2E)-N-(4-{[3-(propan-2-yloxy)benzene]sulfonyl}phenyl)-3-(pyridin-3-yl)prop-2-enamide], the IC50 at NAMPT came out at 1.1 nM; in the experiment on A2780 cells (Homo sapiens, A2780, 72 h), 48.9 nM.
The like results for `Cc1ccccc1S(=O)(=O)c1ccc(NC(=O)/C=C/c2cccnc2)cc1` [(2E)-N-{4-[(2-methylbenzene)sulfonyl]phenyl}-3-(pyridin-3-yl)prop-2-enamide] were, in that order, 33.3 nM and 100 to 1000 nM.
On to `O=C(/C=C/c1cccnc1)Nc1ccc(S(=O)(=O)c2ccccc2)cc1` [(2E)-N-[4-(benzenesulfonyl)phenyl]-3-(pyridin-3-yl)prop-2-enamide], for which the IC50 at NAMPT is 4 nM; in the experiment with A2780 cells (Homo sapiens, A2780, 72 h) it was 81 nM.
Consider `O=C(/C=C/c1cccnc1)Nc1ccc(S(=O)(=O)c2ccc(C(F)(F)F)c(Cl)c2)cc1` [(2E)-N-(4-{[3-chloro-4-(trifluoromethyl)benzene]sulfonyl}phenyl)-3-(pyridin-3-yl)prop-2-enamide], for which the IC50 at NAMPT was 43.4 nM; in the experiment with A2780 cells (Homo sapiens, A2780, 72 h), 100 to 1000 nM.
Consider `CS(=O)(=O)c1cccc(S(=O)(=O)c2ccc(NC(=O)/C=C/c3cccnc3)cc2)c1` [(2E)-N-{4-[(3-methanesulfonylbenzene)sulfonyl]phenyl}-3-(pyridin-3-yl)prop-2-enamide], for which the 50% inhibitory concentration (IC50) on NAMPT was 14.3 nM; in the experiment on A2780 cells (Homo sapiens, A2780, 72 h), 100 to 1000 nM.
The like results for `CC(C)COc1cccc(S(=O)(=O)c2ccc(NC(=O)/C=C/c3cccnc3)cc2)c1` [(2E)-N-(4-{[3-(2-methylpropoxy)benzene]sulfonyl}phenyl)-3-(pyridin-3-yl)prop-2-enamide] were, in that order, 56.7 nM and 100 to 1000 nM.
As to `O=C(/C=C/c1cccnc1)Nc1ccc(S(=O)(=O)c2ccc(-c3ccccc3)cc2)cc1` [(2E)-N-{4-[(4-phenylbenzene)sulfonyl]phenyl}-3-(pyridin-3-yl)prop-2-enamide], the IC50 is 4.5 nM at NAMPT and 100 to 1000 nM in the experiment with A2780 cells (Homo sapiens, A2780, 72 h).
Taken in the same sequence, the figures for `COc1cc(Cl)ccc1S(=O)(=O)c1ccc(NC(=O)/C=C/c2cccnc2)cc1` [(2E)-N-{4-[(4-chloro-2-methoxybenzene)sulfonyl]phenyl}-3-(pyridin-3-yl)prop-2-enamide] were 7.3 nM and 109 nM.
The like results for `Cc1cc(C(F)(F)F)ccc1S(=O)(=O)c1ccc(NC(=O)/C=C/c2cccnc2)cc1` [(2E)-N-(4-{[2-methyl-4-(trifluoromethyl)benzene]sulfonyl}phenyl)-3-(pyridin-3-yl)prop-2-enamide] were, in that order, 62.8 nM and 100 to 1000 nM.
As to `O=C(/C=C/c1cccnc1)Nc1ccc(S(=O)(=O)c2cccc3cccnc23)cc1` [(2E)-3-(pyridin-3-yl)-N-[4-(quinoline-8-sulfonyl)phenyl]prop-2-enamide], the IC50 on NAMPT amounted to 3.6 nM; in the experiment on A2780 cells (Homo sapiens, A2780, 72 h), 12.2 nM.
The like results for `COc1cccc(S(=O)(=O)c2ccc(NC(=O)/C=C/c3cccnc3)cc2)c1` [(2E)-N-{4-[(3-methoxybenzene)sulfonyl]phenyl}-3-(pyridin-3-yl)prop-2-enamide] were, in that order, 85.7 nM and 114 nM.
As to `CCCOc1ccc(S(=O)(=O)c2ccc(NC(=O)/C=C/c3cccnc3)cc2)cc1Cl` [(2E)-N-{4-[(3-chloro-4-propoxybenzene)sulfonyl]phenyl}-3-(pyridin-3-yl)prop-2-enamide], the IC50 on NAMPT is 5.6 nM; with A2780 cells (Homo sapiens, A2780, 72 h), 100 to 1000 nM.
The like results for `O=C(/C=C/c1cccnc1)Nc1ccc(S(=O)(=O)c2ccc(C(F)(F)F)cc2)cc1` [(2E)-3-(pyridin-3-yl)-N-(4-{[4-(trifluoromethyl)benzene]sulfonyl}phenyl)prop-2-enamide] were, in that order, 56.5 nM and 100 to 1000 nM.
As to `O=C(/C=C/c1cccnc1)Nc1ccc(S(=O)(=O)c2cccc(-c3ccccc3)c2)cc1` [(2E)-N-{4-[(3-phenylbenzene)sulfonyl]phenyl}-3-(pyridin-3-yl)prop-2-enamide], the 50% inhibitory concentration (IC50) on NAMPT is 25.4 nM; in the experiment with A2780 cells (Homo sapiens, A2780, 72 h), 100 to 1000 nM.
Take `COc1cc(OC)cc(S(=O)(=O)c2ccc(NC(=O)/C=C/c3cccnc3)cc2)c1` [(2E)-N-{4-[(3,5-dimethoxybenzene)sulfonyl]phenyl}-3-(pyridin-3-yl)prop-2-enamide]: the IC50 on NAMPT was found to be 20.3 nM; in the experiment with A2780 cells (Homo sapiens, A2780, 72 h), 44.3 nM.
Taken in the same sequence, the figures for `COc1ccc(C(C)C)cc1S(=O)(=O)c1ccc(NC(=O)/C=C/c2cccnc2)cc1` [(2E)-N-(4-{[2-methoxy-5-(propan-2-yl)benzene]sulfonyl}phenyl)-3-(pyridin-3-yl)prop-2-enamide] were 2.6 nM and 16.7 nM.
Take `Cn1c(S(=O)(=O)c2ccc(NC(=O)/C=C/c3cccnc3)cc2)cc2ccccc21` [(2E)-N-[4-(1-methyl-1H-indole-2-sulfonyl)phenyl]-3-(pyridin-3-yl)prop-2-enamide]: the concentration for half-maximal inhibition (IC50) at NAMPT was 21.8 nM; in the experiment with A2780 cells (Homo sapiens, A2780, 72 h), 100 to 1000 nM.
For `COc1ccc(Cl)cc1S(=O)(=O)c1ccc(NC(=O)/C=C/c2cccnc2)cc1` [(2E)-N-{4-[(5-chloro-2-methoxybenzene)sulfonyl]phenyl}-3-(pyridin-3-yl)prop-2-enamide], the concentration for half-maximal inhibition (IC50) at NAMPT is 4.6 nM; in the experiment on A2780 cells (Homo sapiens, A2780, 72 h) it was 12.6 nM.
For `COc1cc(Cl)cc(S(=O)(=O)c2ccc(NC(=O)/C=C/c3cccnc3)cc2)c1` [(2E)-N-{4-[(3-chloro-5-methoxybenzene)sulfonyl]phenyl}-3-(pyridin-3-yl)prop-2-enamide], the IC50 at NAMPT is 22 nM; with A2780 cells (Homo sapiens, A2780, 72 h) it was 100 nM.
In the case of `Cn1ncc2cccc(S(=O)(=O)c3ccc(NC(=O)/C=C/c4cccnc4)cc3)c21` [(2E)-N-[4-(1-methyl-1H-indazole-7-sulfonyl)phenyl]-3-(pyridin-3-yl)prop-2-enamide], the 50% inhibitory concentration (IC50) at NAMPT is 8.9 nM; with A2780 cells (Homo sapiens, A2780, 72 h) it was 100 to 1000 nM.
The like results for `O=C(/C=C/c1cccnc1)Nc1ccc(S(=O)(=O)c2ccc(Cl)c(Cl)c2)cc1` [(2E)-N-{4-[(3,4-dichlorobenzene)sulfonyl]phenyl}-3-(pyridin-3-yl)prop-2-enamide] were, in that order, 72.9 nM and 100 to 1000 nM.
The like results for `CCc1cccc(S(=O)(=O)c2ccc(NC(=O)/C=C/c3cccnc3)cc2)c1` [(2E)-N-{4-[(3-ethylbenzene)sulfonyl]phenyl}-3-(pyridin-3-yl)prop-2-enamide] were, in that order, 3.3 nM and 30.5 nM.

For the origin of these results see US9169209B2, “Compounds and compositions for the inhibition of NAMPT” (FORMA TM, LLC, priority 2011, dated 2015).
